In patent US6355799B1, “Substituted benzene compounds, process for their preparation, and herbicidal and defoliant compositions containing them” (ISK Americas Incorporated, priority 1997, dated 2002):

Tests used:
Type in all cases: in vivo
[1] = system: lambsquarters (Chenopodium album, CHEAL); assay: Post-emerge test, greenhouse herbicide activity screening; details: rating scale 0-100 (0 no damage, 100 complete death), 14 days after application
Procedure, shortened: (§1)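 Applied at 15–1000 g ai/ha from acetone in 187 l/ha spray volume. Post-emergence applications included 0.25% v/v non-ionic surfactant and reached plants sown 8–21 days before. Pre-emergence applications were incorporated by surface watering. Efficacy or crop damage was rated on a 0–100 scale after 14 days.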

[2] = system: johnsongrass (Sorghum halepense, SORHA); assay: as above; details: rating scale 0-100 (0 no damage, 100 complete death), 14 days after application
Procedure, shortened: as §1

[3] = system: ivyleaf morningglory (Ipomoea hederacea, IPOHE); assay: as above; details: rating scale 0-100 (0 no damage, 100 complete death), 14 days after application
Procedure, shortened: as §1

[4] = system: sicklepod (Cassia obtusifolia, CASOB); assay: as above; details: rating scale 0-100 (0 no damage, 100 complete death), 14 days after application
Procedure, shortened: as §1

[5] = system: large crabgrass (Digitaria sanguinalis, DIGSA); assay: as above; details: rating scale 0-100 (0 no damage, 100 complete death), 14 days after application
Procedure, shortened: as §1

[6] = system: barnyardgrass (Echinochloa crus-galli, ECHCG); assay: as above; details: rating scale 0-100 (0 no damage, 100 complete death), 14 days after application
Procedure, shortened: as §1

[7] = system: green foxtail (Setaria viridis, SETVI); assay: as above; details: rating scale 0-100 (0 no damage, 100 complete death), 14 days after application
Procedure, shortened: as §1

[8] = system: redroot pigweed (Amaranthus retroflexus, AMARE); assay: as above; details: rating scale 0-100 (0 no damage, 100 complete death), 14 days after application
Procedure, shortened: as §1

[9] = system: velvetleaf (Abutilon theophrasti, ABUTH); assay: as above; details: rating scale 0-100 (0 no damage, 100 complete death), 14 days after application
Procedure, shortened: as §1

[10] = system: upland rice (Oryza sp., var. Tebonnet, RICE); assay: Pre-emerge test, crop safety; details: rating scale 0-100, 14 days after application
Procedure, shortened: (§2)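 Compounds in acetone were track-sprayed at 187 l/ha, 15–1000 g ai/ha, onto sandy loam pots. Pre-emerge seeds were sown one day before spraying, with surface watering afterwards. Post-emerge plants were at the 2–3 leaf stage and sprayed with 0.25% v/v non-ionic surfactant. Injury was rated 0–100 at 14 days.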

[11] = system: field corn (Zea mays L., var. Dekalb 535, CORN); assay: Pre-emerge test, crop safety; details: rating scale 0-100, 14 days after application
Procedure, shortened: as §2

[12] = system: common ragweed (Ambrosia artemisizfolia L., AMBEL); assay: Pre-emerge test, greenhouse herbicide activity screening; details: rating scale 0-100, 14 days after application
Procedure, shortened: (§3)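 Fourteen days after spraying, crop and weed injury was graded visually from 0, no effect, to 100, every plant dead. Test substances were dissolved in acetone and applied at 15–1000 g ai/ha with a flat-fan nozzle. Application was either pre-emergence, one day after sowing, or post-emergence at the 2–3 leaf stage.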

[13] = system: lambsquarters (Chenopodium album, CHEAL); assay: as above; details: rating scale 0-100, 14 days after application
Procedure, shortened: as §3

[14] = system: johnsongrass (Sorghum halepense, SORHA); assay: as above; details: rating scale 0-100, 14 days after application
Procedure, shortened: as §3

[15] = system: ivyleaf morningglory (Ipomoea hederacea, IPOHE); assay: as above; details: rating scale 0-100, 14 days after application
Procedure, shortened: as §3

[16] = system: sicklepod (Cassia obtusifolia, CASOB); assay: as above; details: rating scale 0-100, 14 days after application
Procedure, shortened: as §3

[17] = system: large crabgrass (Digitaria sanguinalis, DIGSA); assay: as above; details: rating scale 0-100, 14 days after application
Procedure, shortened: as §3

[18] = system: barnyardgrass (Echinochloa crus-galli, ECHCG); assay: as above; details: rating scale 0-100, 14 days after application
Procedure, shortened: as §3

[19] = system: green foxtail (Setaria viridis, SETVI); assay: as above; details: rating scale 0-100, 14 days after application
Procedure, shortened: as §3

[20] = system: velvetleaf (Abutilon theophrasti, ABUTH); assay: as above; details: rating scale 0-100, 14 days after application
Procedure, shortened: as §3

[21] = system: redroot pigweed (Amaranthus retroflexus, AMARE); assay: as above; details: rating scale 0-100, 14 days after application
Procedure, shortened: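 Plants grown in 10 cm pots of sandy loam mix received acetone-dissolved compounds through a moving flat-fan nozzle. Doses ranged from 15 to 1000 g ai/ha. Pre-emerge pots were seeded one day earlier, post-emerge pots 8–21 days earlier. Fourteen days on, each pot was graded 0–100 for damage.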

[22] = system: upland rice (Oryza sp., var. Tebonnet, RICE); assay: Post-emerge test, crop safety; details: rating scale 0-100 (0 no damage, 100 complete death), 14 days after application
Procedure, shortened: as §3

[23] = system: field corn (Zea mays L., var. Dekalb 535, CORN); assay: Post-emerge test, crop safety; details: rating scale 0-100 (0 no damage, 100 complete death), 14 days after application
Procedure, shortened: as §3

C=COC(=O)C(C)(Cl)Cc1c(OC)c(Cl)cc(F)c1-n1c(=O)cc(C(F)(F)F)n(C)c1=O (centres unmarked) [14-42]
Post-emerge Herbicidal Activity, phytotoxicity rating CHEAL ([1]; Rate 63 g ai/ha): 100
Post-emerge Herbicidal Activity, phytotoxicity rating CHEAL ([1]; Rate 250 g ai/ha): 100
Post-emerge Herbicidal Activity, phytotoxicity rating SORHA ([2]; Rate 63 g ai/ha): 60
Post-emerge Herbicidal Activity, phytotoxicity rating SORHA ([2]; Rate 250 g ai/ha): 95
Post-emerge Herbicidal Activity, phytotoxicity rating IPOHE ([3]; Rate 63 g ai/ha): 100
Post-emerge Herbicidal Activity, phytotoxicity rating IPOHE ([3]; Rate 250 g ai/ha): 100
Post-emerge Herbicidal Activity, phytotoxicity rating CASOB ([4]; Rate 63 g ai/ha): 60
Post-emerge Herbicidal Activity, phytotoxicity rating CASOB ([4]; Rate 250 g ai/ha): 90
Post-emerge Herbicidal Activity, phytotoxicity rating DIGSA ([5]; Rate 63 g ai/ha): 95
Post-emerge Herbicidal Activity, phytotoxicity rating DIGSA ([5]; Rate 250 g ai/ha): 100
Post-emerge Herbicidal Activity, phytotoxicity rating ECHCG ([6]; Rate 63 g ai/ha): 100
Post-emerge Herbicidal Activity, phytotoxicity rating ECHCG ([6]; Rate 250 g ai/ha): 100
Post-emerge Herbicidal Activity, phytotoxicity rating SETVI ([7]; Rate 63 g ai/ha): 100
Post-emerge Herbicidal Activity, phytotoxicity rating SETVI ([7]; Rate 250 g ai/ha): 100
Post-emerge Herbicidal Activity, phytotoxicity rating AMARE ([8]; Rate 63 g ai/ha): 100
Post-emerge Herbicidal Activity, phytotoxicity rating AMARE ([8]; Rate 250 g ai/ha): 100
Post-emerge Herbicidal Activity, phytotoxicity rating ABUTH ([9]; Rate 63 g ai/ha): 100
Post-emerge Herbicidal Activity, phytotoxicity rating ABUTH ([9]; Rate 250 g ai/ha): 100
Pre-emerge phytotoxicity rating, crop damage RICE ([10]; 63 g ai/ha): 10
Pre-emerge phytotoxicity rating, crop damage RICE ([10]; 250 g ai/ha): 30
Pre-emerge phytotoxicity rating, crop damage CORN ([11]; 63 g ai/ha): 0
Pre-emerge phytotoxicity rating, crop damage CORN ([11]; 250 g ai/ha): 20
Pre-emerge herbicidal activity, phytotoxicity rating AMBEL ([12]; 63 g ai/ha): 0
Pre-emerge herbicidal activity, phytotoxicity rating AMBEL ([12]; 250 g ai/ha): 100
Pre-emerge herbicidal activity, phytotoxicity rating CHEAL ([13]; 63 g ai/ha): 90
Pre-emerge herbicidal activity, phytotoxicity rating CHEAL ([13]; 250 g ai/ha): 100
Pre-emerge herbicidal activity, phytotoxicity rating SORHA ([14]; 63 g ai/ha): 0
Pre-emerge herbicidal activity, phytotoxicity rating SORHA ([14]; 250 g ai/ha): 0
Pre-emerge herbicidal activity, phytotoxicity rating IPOHE ([15]; 63 g ai/ha): 0
Pre-emerge herbicidal activity, phytotoxicity rating IPOHE ([15]; 250 g ai/ha): 30
Pre-emerge herbicidal activity, phytotoxicity rating CASOB ([16]; 63 g ai/ha): 0
Pre-emerge herbicidal activity, phytotoxicity rating CASOB ([16]; 250 g ai/ha): 0
Pre-emerge herbicidal activity, phytotoxicity rating DIGSA ([17]; 63 g ai/ha): 0
Pre-emerge herbicidal activity, phytotoxicity rating DIGSA ([17]; 250 g ai/ha): 50
Pre-emerge herbicidal activity, phytotoxicity rating ECHCG ([18]; 63 g ai/ha): 0
Pre-emerge herbicidal activity, phytotoxicity rating ECHCG ([18]; 250 g ai/ha): 20
Pre-emerge herbicidal activity, phytotoxicity rating SETVI ([19]; 63 g ai/ha): 30
Pre-emerge herbicidal activity, phytotoxicity rating SETVI ([19]; 250 g ai/ha): 80
Pre-emerge herbicidal activity, phytotoxicity rating ABUTH ([20]; 63 g ai/ha): 80
Pre-emerge herbicidal activity, phytotoxicity rating ABUTH ([20]; 250 g ai/ha): 95
Pre-emerge herbicidal activity, phytotoxicity rating AMARE ([21]; 63 g ai/ha): 95
Pre-emerge herbicidal activity, phytotoxicity rating AMARE ([21]; 250 g ai/ha): 100
Post-emerge phytotoxicity rating RICE (crop damage) ([22]; Rate 63 g ai/ha): 95
Post-emerge phytotoxicity rating RICE (crop damage) ([22]; Rate 250 g ai/ha): 100
Post-emerge phytotoxicity rating CORN (crop damage) ([23]; Rate 63 g ai/ha): 100
Post-emerge phytotoxicity rating CORN (crop damage) ([23]; Rate 250 g ai/ha): 100

C=CCOC(=O)C(C)(Cl)Cc1c(OC)c(Cl)cc(F)c1-n1c(=O)cc(C(F)(F)F)n(C)c1=O (centres unmarked) [14-43]
Post-emerge Herbicidal Activity, phytotoxicity rating CHEAL ([1]; Rate 63 g ai/ha): 100
Post-emerge Herbicidal Activity, phytotoxicity rating CHEAL ([1]; Rate 250 g ai/ha): 100
Post-emerge Herbicidal Activity, phytotoxicity rating SORHA ([2]; Rate 63 g ai/ha): 80
Post-emerge Herbicidal Activity, phytotoxicity rating SORHA ([2]; Rate 250 g ai/ha): 95
Post-emerge Herbicidal Activity, phytotoxicity rating IPOHE ([3]; Rate 63 g ai/ha): 95
Post-emerge Herbicidal Activity, phytotoxicity rating IPOHE ([3]; Rate 250 g ai/ha): 100
Post-emerge Herbicidal Activity, phytotoxicity rating CASOB ([4]; Rate 63 g ai/ha): 40
Post-emerge Herbicidal Activity, phytotoxicity rating CASOB ([4]; Rate 250 g ai/ha): 90
Post-emerge Herbicidal Activity, phytotoxicity rating DIGSA ([5]; Rate 63 g ai/ha): 80
Post-emerge Herbicidal Activity, phytotoxicity rating DIGSA ([5]; Rate 250 g ai/ha): 100
Post-emerge Herbicidal Activity, phytotoxicity rating ECHCG ([6]; Rate 63 g ai/ha): 100
Post-emerge Herbicidal Activity, phytotoxicity rating ECHCG ([6]; Rate 250 g ai/ha): 100
Post-emerge Herbicidal Activity, phytotoxicity rating SETVI ([7]; Rate 63 g ai/ha): 90
Post-emerge Herbicidal Activity, phytotoxicity rating SETVI ([7]; Rate 250 g ai/ha): 100
Post-emerge Herbicidal Activity, phytotoxicity rating AMARE ([8]; Rate 63 g ai/ha): 100
Post-emerge Herbicidal Activity, phytotoxicity rating AMARE ([8]; Rate 250 g ai/ha): 100
Post-emerge Herbicidal Activity, phytotoxicity rating ABUTH ([9]; Rate 63 g ai/ha): 100
Post-emerge Herbicidal Activity, phytotoxicity rating ABUTH ([9]; Rate 250 g ai/ha): 100
Pre-emerge phytotoxicity rating, crop damage RICE ([10]; 63 g ai/ha): 10
Pre-emerge phytotoxicity rating, crop damage RICE ([10]; 250 g ai/ha): 40
Pre-emerge phytotoxicity rating, crop damage CORN ([11]; 63 g ai/ha): 0
Pre-emerge phytotoxicity rating, crop damage CORN ([11]; 250 g ai/ha): 20
Pre-emerge herbicidal activity, phytotoxicity rating AMBEL ([12]; 63 g ai/ha): 0
Pre-emerge herbicidal activity, phytotoxicity rating AMBEL ([12]; 250 g ai/ha): 100
Pre-emerge herbicidal activity, phytotoxicity rating CHEAL ([13]; 63 g ai/ha): 100
Pre-emerge herbicidal activity, phytotoxicity rating CHEAL ([13]; 250 g ai/ha): 100
Pre-emerge herbicidal activity, phytotoxicity rating SORHA ([14]; 63 g ai/ha): 20
Pre-emerge herbicidal activity, phytotoxicity rating SORHA ([14]; 250 g ai/ha): 30
Pre-emerge herbicidal activity, phytotoxicity rating IPOHE ([15]; 63 g ai/ha): 0
Pre-emerge herbicidal activity, phytotoxicity rating IPOHE ([15]; 250 g ai/ha): 0
Pre-emerge herbicidal activity, phytotoxicity rating CASOB ([16]; 63 g ai/ha): 0
Pre-emerge herbicidal activity, phytotoxicity rating CASOB ([16]; 250 g ai/ha): 0
Pre-emerge herbicidal activity, phytotoxicity rating DIGSA ([17]; 63 g ai/ha): 80
Pre-emerge herbicidal activity, phytotoxicity rating DIGSA ([17]; 250 g ai/ha): 100
Pre-emerge herbicidal activity, phytotoxicity rating ECHCG ([18]; 63 g ai/ha): 0
Pre-emerge herbicidal activity, phytotoxicity rating ECHCG ([18]; 250 g ai/ha): 80
Pre-emerge herbicidal activity, phytotoxicity rating SETVI ([19]; 63 g ai/ha): 30
Pre-emerge herbicidal activity, phytotoxicity rating SETVI ([19]; 250 g ai/ha): 95
Pre-emerge herbicidal activity, phytotoxicity rating ABUTH ([20]; 63 g ai/ha): 90
Pre-emerge herbicidal activity, phytotoxicity rating ABUTH ([20]; 250 g ai/ha): 100
Pre-emerge herbicidal activity, phytotoxicity rating AMARE ([21]; 63 g ai/ha): 100
Pre-emerge herbicidal activity, phytotoxicity rating AMARE ([21]; 250 g ai/ha): 100
Post-emerge phytotoxicity rating RICE (crop damage) ([22]; Rate 63 g ai/ha): 95
Post-emerge phytotoxicity rating RICE (crop damage) ([22]; Rate 250 g ai/ha): 100
Post-emerge phytotoxicity rating CORN (crop damage) ([23]; Rate 63 g ai/ha): 95
Post-emerge phytotoxicity rating CORN (crop damage) ([23]; Rate 250 g ai/ha): 100
